Data taken from paper PMC6399351, “Cationic Intrinsically Disordered Antimicrobial Peptides (CIDAMPs) Represent a New Paradigm of Innate Defense with a Potential for Novel Anti-Infectives” (Scientific Reports, 2019).
Values joined by “and” are separate entries in the source; they are usually repeats but may differ in a detail not shown here. Identical values can stand only once. Like-named read-outs stand apart in the source and are kept apart here. Ends that are not written are not given here.

Key:
[1] = tested on: Burkholderia cepacia ATCC 25416; conditions: CFU assay, 10 mM NaP, pH 5.5, 0.25% glucose
E. coli ATCC 11775 = assay: CFU assay of antimicrobial activity; type: cell-based, Escherichia coli; conditions: 10 mM NaP, pH 5.5, 1% TSB
Procedure: (§1) All purified peptides and recombinant proteins were applied using a colony forming unit (CFU) assay in different media. Bacteria were grown to early log-phase in BHI, washed either with 10 mM Na-P, pH 7.4/1% TSB or pH 5.5/1% TSB, or pH 5.5 without TSB or BHI, and adjusted to a concentration of 10^4–10^5 colony forming units (CFU)/ml. For cell number control, 100 µl aliquots were diluted 1:10, 1:100 and 1:1000 and plated in duplicates on BHI agar plates. To 100 µl aliquots of the bacteria, suspended in the respective medium (10 mM Na-P buffer pH 7,0–7,4/ 1% (w/v) TSB; 10 mM Na-P buffer pH 5,5/ 1% (w/v) TSB; 10 mM Na-P buffer pH 7,0–7,4/ 1% (w/v) TSB pH 7,0–7,4/ 0,25% (w/v) glucose; 10 mM Na-P buffer pH 5,5/ 0,25% (w/v) glucose, respectively), 10 µl of a solution of the peptide or protein (two-fold dilutions, from 300 µg/ml or 150 µg/ml down to 19 ng/ml), dissolved in 0.01% (v/v) acetic acid, were added.
(§2) Then bacteria were incubated for 2 h at ambient temperature, if not otherwise stated. 10 µl of 0.01% (v/v) acetic acid, added to 100 µl aliquots of the bacteria in the respective medium, served as negative control. From each test, 1:10 and 1:100 dilutions were generated and plated as duplicates of 100 µl aliquots on BHI agar plates. After 16 h incubation at 37 °C, CFU were counted using a colony counter (Bio Kobe, Japan) and expressed as mean of the duplicate estimation to achieve a complete dose-response curve. All experiments were performed at serial dilutions in a concentration range of 100 µg/mL −25 ng/mL for recombinant HRNR fragments and 300 or 150 µg/mL–19 ng/mL for synthetic peptides.

P. aeruginosa ATCC 10145 = conditions: CFU assay, 10 mM NaP
C. albicans ATCC 24433 = assay: CFU assay of antimicrobial activity; type: cell-based, Candida albicans; conditions: 10 mM NaP
Procedure: Bacteria were cultivated in either brain heart infusion medium (BHI), lysogeny broth (LB) or tryptic soy broth (TSB)[88]. If not otherwise stated, bacteria were incubated under shaking conditions (37 °C at 170 rpm) or as indicated on the ATCC- or DSM-data sheets. Candida albicans was cultured for 3 days on Yeast Extract-Peptone Dextrose (YPD) agar at 30 °C and yeast suspensions at appropriate density were treated with CIDAMPs as indicated.
as §1, §2

[2] = tested on: Acinetobacter baumannii ATCC 19606; assay: CO-ADD MIC, broth microdilution (CLSI); type: cell-based; conditions: Mueller–Hinton broth, 5 × 10^5 CFU/mL, 18 h 37 °C, by CO-ADD
Source text: (§3) They were defined as the lowest peptide
(§4) Further details of the screening

[3] = tested on: Pseudomonas aeruginosa ATCC 27853; assay: CO-ADD MIC, broth microdilution (CLSI); type: cell-based; conditions: Mueller–Hinton broth, 5 × 10^5 CFU/mL, 18 h 37 °C, by CO-ADD
Source text: as §3, §4

[4] = tested on: Staphylococcus aureus ATCC 43300; conditions: MRSA; CLSI, Mueller–Hinton broth, 5 × 10^5 CFU/mL, 18 h 37 °C, by CO-ADD
[5] = tested on: Klebsiella pneumonia ATCC 700603; conditions: MDR strain; CLSI, Mueller–Hinton broth, 5 × 10^5 CFU/mL, 18 h 37 °C, by CO-ADD
E. coli ATCC 25922 = assay: CO-ADD MIC, broth microdilution (CLSI); type: cell-based, Escherichia coli; conditions: Mueller–Hinton broth, 5 × 10^5 CFU/mL, 18 h 37 °C, by CO-ADD
Source text: as §3, §4

[6] = tested on: Candida albicans ATCC 90028; assay: CO-ADD MIC, antifungal assay (CLSI); type: cell-based; conditions: Yeast Nitrogen Base broth, 24 h 35 °C, by CO-ADD
Procedure: (§5) Fungi strains were cultured for 3 days on Yeast Extract-Peptone Dextrose (YPD) agar at 30 °C. A yeast suspension of 1 × 10^6 to 5 × 10^6 cells/mL (as determined by OD530) was prepared from five colonies. These stock suspensions were diluted with Yeast Nitrogen Base (YNB) broth to a final concentration of 2.5 × 10^3 CFU/mL. […] Plates were covered and incubated at 35 °C for 24 h without shaking.

[7] = tested on: Cryptococcus neoformans ATCC 208821; assay: CO-ADD MIC, antifungal assay (CLSI); type: cell-based; conditions: Yeast Nitrogen Base broth, 24 h 35 °C, by CO-ADD
Procedure: as §5

[8] = tested on: Corynebacterium simulans DSM 44415; assay: CFU assay of antimicrobial activity; type: cell-based; conditions: 10 mM NaP, pH 6.0, 0.25% glucose
Procedure: All purified peptides and recombinant proteins were applied using a colony forming unit (CFU) assay in different media. Bacteria were grown to early log-phase in BHI, washed either with 10 mM Na-P, pH 7.4/1% TSB or pH 5.5/1% TSB, or pH 5.5 without TSB or BHI, and adjusted to a concentration of 10^4–10^5 colony forming units (CFU)/ml. For cell number control, 100 µl aliquots were diluted 1:10, 1:100 and 1:1000 and plated in duplicates on BHI agar plates. […]
as §2

[9] = CFU assay, 10 mM NaP, pH 5.5, 1% TSB
[10] = CFU assay, 10 mM NaP, pH 5.5, 0.25% glucose
[11] = CFU assay, 10 mM NaP, pH 7.0, 0.25% glucose

Molecule | LD90 (E. coli ATCC 11775) | LD100 (E. coli ATCC 11775) | LD90 (P. aeruginosa ATCC 10145; pH 5.5, 0.25% glucose) | LD100 (P. aeruginosa ATCC 10145; pH 5.5, 0.25% glucose) | LD90 (P. aeruginosa ATCC 10145; pH 5.5, 1% TSB) | LD100 (P. aeruginosa ATCC 10145; pH 5.5, 1% TSB) | LD90 (C. albicans ATCC 24433; pH 5.5, 1% TSB) | LD100 (C. albicans ATCC 24433; pH 5.5, 1% TSB) | LD90 [8] | LD100 [8] | other results
GRHGSGLGHSSSHGQHGSGSGRSSSRGPY [HR 1-17] | >300 µg/mL | >300 µg/mL | 0.038 µg/mL and 0.075 µg/mL | 0.15 µg/mL and 0.3 µg/mL | 0.59 µg/mL | 18.75 µg/mL | 18.8 µg/mL | 150 µg/mL | – | – | LD90 [1]: >300 µg/mL; LD100 [1]: >300 µg/mL; LD90 (S. aureus ATCC 6538; [9]): >300 µg/mL; LD100 (S. aureus ATCC 6538; [9]): >300 µg/mL; LD90 (C. albicans ATCC 24433; pH 5.5, 0.25% glucose): 18.8 µg/mL; LD100 (C. albicans ATCC 24433; pH 5.5, 0.25% glucose): 9.38 µg/mL
GRRGSGLGRSSSRGGRGSGSGR [HR 1-18,4H-4R, HR1-18 variant] | – | – | – | 0.15 µg/mL | – | – | – | – | – | – | Minimal inhibitory concentration (MIC) [2]: >32 µg/mL; Minimal inhibitory concentration (MIC) [3]: >32 µg/mL; Minimal inhibitory concentration (MIC) [4]: >32 µg/mL; Minimal inhibitory concentration (MIC) [5]: >32 µg/mL; Minimal inhibitory concentration (MIC) (E. coli ATCC 25922): >32 µg/mL; LD90 (S. aureus ATCC 6538; [10]): 150 µg/mL; LD100 (S. aureus ATCC 6538; [10]): > 300 µg/mL; LD100 (S. aureus ATCC 6538; [11]): > 300 µg/mL; max.killing (S. aureus ATCC 6538; [11]): 98.8%; Minimal inhibitory concentration (MIC) [6]: >32 µg/mL; Minimal inhibitory concentration (MIC) [7]: >32 µg/mL
HTQNSSSGQAASSHEQAR [FLG684-701] | – | – | > 300 µg/mL | > 300 µg/mL | – | – | – | – | > 150 µg/mL | > 150 µg/mL | –
QGSHHEQSVNRSGHSGSHHSHTTSQGR [FLG528-554] | – | – | 0.15 µg/mL | 0.59 µg/mL | – | – | – | – | > 150 µg/mL | > 150 µg/mL | activity against S. aureus ATCC 6538 (S. aureus ATCC 6538; at concentrations <60 µM (data not shown)): lack activity
QSGTHHAENSSGGQAASSHEQAR [FLG2301-2323] | – | – | > 300 µg/mL | 300 µg/mL | – | – | – | – | > 150 µg/mL | > 150 µg/mL | –
QSGTRHAETSSGGQAASSHEQAR [FLG3273-3295] | – | – | > 300 µg/mL | 300 µg/mL | – | – | – | – | > 150 µg/mL | > 150 µg/mL | –
QSGTRHETSSGGQAASSQEQAR [FLG1652-1674] | – | – | > 300 µg/mL | > 300 µg/mL | – | – | – | – | > 150 µg/mL | > 150 µg/mL | –
QSGTRHTQTSSGGQAASSHEQAR [FLG2625-2647] | – | – | > 300 µg/mL | > 300 µg/mL | – | – | – | – | > 150 µg/mL | > 150 µg/mL | –
rHRNR2638–2684: recombinant HRNR fragment (QSSGHGRQGSGSGQSPSRGRHGSGLGHSSSHGQHGSGSGRSSSRGPY; UniProt Q86YZ3 2638-2684, looked up, fragment) | 3.1 µg/mL | >100 µg/mL | – | – | 0.39 µg/mL | 12.5 µg/mL | 6.3 µg/mL | >100 µg/mL | – | – | –
rHRNR2656–2684: recombinant HRNR fragment (GRHGSGLGHSSSHGQHGSGSGRSSSRGPY; UniProt Q86YZ3 2656-2684, looked up, fragment) | 3.1 µg/mL | >100 µg/mL | – | – | 0.78 µg/mL | 12.5 µg/mL | 6.3 µg/mL | >100 µg/mL | – | – | –
rHRNR2727–2850: recombinant HRNR fragment (protein, UniProt Q86YZ3 2727-2850, looked up, fragment) SGQSSTFDQEGSSTGQSSSYGHRGSGSSQSSGYGRHGAGSGQSLSHGRHGSGSGQSSSYGQHGSGSGQSSGYSQHGSGSGQDGYSYCKGGSNHDGGSSGSYFLSFPSSTSPYEYVQEQRCYFYQ | 0.28 µg/mL | >100 µg/mL | – | – | 2.1 µg/mL | 17.1 µg/mL | 8.6 µg/mL | 137 µg/mL | – | – | –
rHRNR1075–1172: recombinant HRNR fragment (protein, UniProt Q86YZ3 1075-1172, looked up, fragment) THGQHGSTSGQSSSCGQHGASSGQSSSHGQHGSGSSQSSGYGRQGSGSGQSPGHGQRGSGSRQSPSYGRHGSGSGRSSSSGQHGSGLGESSGFGHHES | 6.25 µg/mL | >100 µg/mL | – | – | 6.25 µg/mL | >100 µg/mL | 1.6 µg/mL | 12.5 µg/mL | – | – | –
